The structures appear in SMILES notation.

Data on 1 compound can be found in patent US4002733A, “Sunscreening compositions” (Minnesota Mining and Manufacturing Company, priority 1974, dated 1977).

This data set is described as follows: UV absorption of the product in solution (absorption maximum, Epsilon value). In kind it is physicochemical. As to conditions: solvent not stated.

As for `CCC(=O)c1ccc(NC(=O)CCCCCCCCC(=O)Nc2ccc(C(=O)CC)cc2)cc1` [Example 4], the absorption maxima came to 292 nm and the “molar extinction coefficient (Epsilon value)” value is 48,000.
